Measured values taken from ChEMBL document CHEMBL3400005, “Thermodynamic equilibrium solubility measurements in simulated fluids by 96-well plate method in early drug discovery” (Bioorg Med Chem Lett, 2015).
Values after ≈ are worked out from the molar mass of the structure shown.

Assays:
[1] = buffer, 4 h
[2] = buffer, pH 7.4, 4 h
[3] = buffer, 24 h
[4] = buffer, pH 7.4, 24 h
physchem [5] = settings: simulated gastric fluid, pH 1.2
physchem [6] = settings: simulated intestinal fluid, pH 6.8
physchem [7] = settings: simulated gastric fluid, pH 1.2; remark: listed apart in the source
physchem [8] = settings: simulated intestinal fluid, pH 6.8; remark: listed apart in the source
[9] = simulated gi fluid, pH 1.2, 4 h
[10] = simulated gi fluid, pH 6.8, 4 h
[11] = simulated gi fluid, pH 1.2, 24 h
[12] = simulated gi fluid, pH 6.8, 24 h
physchem [13] = settings: water
physchem [14] = settings: PBS, pH 7.4
physchem [15] = settings: water; remark: listed apart in the source
physchem [16] = settings: PBS, pH 7.4; remark: listed apart in the source
physchem [17] = assay: physchem

| SMILES | -log(solubility) [1] | -log(solubility) [2] | -log(solubility) [3] | -log(solubility) [4] | solubility thermodynamic at 4 h (physchem [5]) [µM] | solubility thermodynamic at 4 h (physchem [6]) [µM] | solubility thermodynamic at 24 h (physchem [7]) [µM] | solubility thermodynamic at 24 h (physchem [8]) [µM] | -log(solubility) [9] | -log(solubility) [10] | -log(solubility) [11] | -log(solubility) [12] | -log(solubility) | solubility [µg/mL] | solubility thermodynamic at 4 h (physchem [13]) [µM] | solubility thermodynamic at 4 h (physchem [14]) [µM] | solubility thermodynamic at 24 h (physchem [15]) [µM] | solubility thermodynamic at 24 h (physchem [16]) [µM] | solubility thermodynamic (physchem [17]) [µM] |
| --- | --- | --- | --- | --- | --- | --- | --- | --- | --- | --- | --- | --- | --- | --- | --- | --- | --- | --- | --- |
| CC(=O)Nc1ccc(O)cc1 [ACETAMINOPHEN] | 2.7 | 3 | 2.87 | 2.93 | 1000 (≈ 151 µg/mL) | 3.31 (≈ 0.501 µg/mL) | 1230 (≈ 186 µg/mL) | 3.31 (≈ 0.501 µg/mL) | – | – | – | – | – | – | – | – | – | – | – |
| CCCC1O[C@@H]2C[C@H]3[C@@H]4CCC5=CC(=O)C=C[C@]5(C)[C@H]4[C@@H](O)C[C@]3(C)[C@]2(C(=O)CO)O1 (stereo partly drawn) [BUDESONIDE] | 5.03 | 5.03 | 5.23 | 5.27 | – | – | – | – | 5.03 | 5.03 | 5.07 | 5.24 | 5.33 | 28 (≈ 65 µM) | – | – | – | – | – |
| NC(=O)N1c2ccccc2C=Cc2ccccc21 [CARBAMAZEPINE] | 4.07 | 4.47 | 4.4 | 4.48 | – | – | – | – | 4.07 | 4.28 | 4.34 | 4.85 | 4.29 | 170 (≈ 720 µM) | – | – | – | – | – |
| COc1cc2c(c(OC)c1OC)-c1ccc(OC)c(=O)cc1[C@@H](NC(C)=O)CC2 [COLCHICINE] | 3.43 | 3.7 | – | – | 50.1 (≈ 20 µg/mL) | 200 (≈ 79.7 µg/mL) | – | – | – | – | – | – | – | – | – | – | – | – | – |
| COc1cc(/C=C/C(=O)CC(=O)/C=C/c2ccc(O)c(OC)c2)ccc1O [CURCUMIN] | – | – | – | – | 1.35 (≈ 0.497 µg/mL) | 1.35 (≈ 0.497 µg/mL) | – | – | – | – | – | – | 6.78 | – | 1.35 (≈ 0.497 µg/mL) | 1.35 (≈ 0.497 µg/mL) | – | – | – |
| CC1(C)[C@@H](O)CC[C@]2(C)[C@H]3C(=O)C=C4[C@@H]5C[C@@](C)(C(=O)O)CC[C@]5(C)CC[C@@]4(C)[C@]3(C)CC[C@@H]12 [ENOXOLONE] | 5.97 | 5.67 | – | – | 1.07 (≈ 0.504 µg/mL) | 1.07 (≈ 0.504 µg/mL) | – | – | – | – | – | – | – | – | – | – | – | – | – |
| COCCOC(=O)C1=C(C)NC(C)=C(C(=O)OC(C)C)C1c1cccc([N+](=O)[O-])c1 (stereo not drawn) [NIMODIPINE] | – | 6.62 | – | – | 9.55 (≈ 4 µg/mL) | 9.55 (≈ 4 µg/mL) | 10.7 (≈ 4.48 µg/mL) | 10 (≈ 4.18 µg/mL) | – | – | – | – | – | – | 4.79 (≈ 2 µg/mL) | – | 4.07 (≈ 1.7 µg/mL) | 0.398 (≈ 0.167 µg/mL) | 5.75 (≈ 2.41 µg/mL) |
| CO[C@H]1/C=C/O[C@@]2(C)Oc3c(C)c(O)c4c(O)c(c(/C=N/N5CCN(C)CC5)c(O)c4c3C2=O)NC(=O)/C(C)=C\C=C\[C@H](C)[C@H](O)[C@@H](C)[C@@H](O)[C@@H](C)[C@H](OC(C)=O)[C@@H]1C [RIFAMPIN] | 4.31 | 4.01 | 4.21 | 4.14 | 97.7 (≈ 80.4 µg/mL) | 97.7 (≈ 80.4 µg/mL) | 95.5 (≈ 78.6 µg/mL) | 72.4 (≈ 59.6 µg/mL) | – | – | – | – | – | – | – | – | – | – | – |
